Reference: article PMC5397484, “Gel-Based Purification and Biochemical Study of Laccase Isozymes from Ganoderma sp. and Its Role in Enhanced Cotton Callogenesis” (Frontiers in Microbiology, 2017)
Read-outs that look alike come from different tables or passages of the source.

Key:
Experiment in all cases: absorbance […] nm, Eadie-Hofstee plot
Type in all cases: biochemical, Ganoderma lucidum
Glac L3 [1] = test system: T1, Glac L3; conditions: 0.1 M sodium acetate pH 5.0 (methods; table title says optimal pH); 0.02-0.5 mM substrate; read-out: ABTS / Km
T1 construct: gene GL16398; native secreted isozyme, copper-induced culture, native-PAGE purified; 40-66 kDa range for all isozymes, described as multimeric; gene not assigned (GL tags are of another genome strain)

Glac L4 [2] = test system: T2, Glac L4; conditions: 0.1 M sodium acetate pH 5.0 (methods; table title says optimal pH); 0.02-0.5 mM substrate; read-out: ABTS / Km
T2 construct: gene GL16398; native secreted isozyme, copper-induced culture, native-PAGE purified; 40-66 kDa range for all isozymes, described as multimeric; gene not assigned (GL tags are of another genome strain)

Glac L2 [3] = test system: T3, Glac L2; conditions: 0.1 M sodium acetate pH 5.0 (methods; table title says optimal pH); 0.02-0.5 mM substrate; read-out: ABTS / Km
T3 construct: gene GL16398; native secreted isozyme, copper-induced culture, native-PAGE purified; 40-66 kDa range for all isozymes, described as multimeric; gene not assigned (GL tags are of another genome strain)

Glac L5 [4] = test system: T4, Glac L5; conditions: 0.1 M sodium acetate pH 5.0 (methods; table title says optimal pH); 0.02-0.5 mM substrate; read-out: ABTS / Km
T4 construct: gene GL16398; native secreted isozyme, copper-induced culture, native-PAGE purified; 40-66 kDa range for all isozymes, described as multimeric; gene not assigned (GL tags are of another genome strain)

Glac L4 [5] = test system: T2, Glac L4; conditions: citrate-phosphate pH 4.0 (methods; table title says optimal pH); 0.1-0.8 mM substrate; read-out: O-tolidine / Km
Glac L3 [6] = test system: T1, Glac L3; conditions: citrate-phosphate pH 4.0 (methods; table title says optimal pH); 0.1-0.8 mM substrate; read-out: O-tolidine / Km
Glac L5 [7] = test system: T4, Glac L5; conditions: citrate-phosphate pH 4.0 (methods; table title says optimal pH); 0.1-0.8 mM substrate; read-out: O-tolidine / Km
Glac L2 [8] = test system: T3, Glac L2; conditions: citrate-phosphate pH 4.0 (methods; table title says optimal pH); 0.1-0.8 mM substrate; read-out: O-tolidine / Km
Glac L3 [9] = test system: T1, Glac L3; conditions: citrate-phosphate pH 4.0 (methods; table title says optimal pH); 0.5-3.0 mM substrate; read-out: Guaiacol / Km
Glac L5 [10] = test system: T4, Glac L5; conditions: citrate-phosphate pH 4.0 (methods; table title says optimal pH); 0.5-3.0 mM substrate; read-out: Guaiacol / Km
Glac L4 [11] = test system: T2, Glac L4; conditions: citrate-phosphate pH 4.0 (methods; table title says optimal pH); 0.5-3.0 mM substrate; read-out: Guaiacol / Km
Glac L2 [12] = test system: T3, Glac L2; conditions: citrate-phosphate pH 4.0 (methods; table title says optimal pH); 0.5-3.0 mM substrate; read-out: Guaiacol / Km

CCn1c(=NN=c2sc3cc(S(=O)(=O)O)ccc3n2CC)sc2cc(S(=O)(=O)O)ccc21 [ABTS, 2,2′-azino-bis(3-ethylbenzothiazoline-6-sulfonic acid)]
Km (Glac L3 [1]): 81 µM
Km (Glac L4 [2]): 50 µM
Km (Glac L2 [3]): 83 µM
Km (Glac L5 [4]): 15 µM

Cc1cc(-c2ccc(N)c(C)c2)ccc1N [O-tolidine]
Km (Glac L4 [5]): 365 µM
Km (Glac L3 [6]): 507 µM
Km (Glac L5 [7]): 78 µM
Km (Glac L2 [8]): 724 µM

COc1ccccc1O [guaiacol]
Km (Glac L3 [9]): 80 µM
Km (Glac L5 [10]): 126 µM
Km (Glac L4 [11]): 96 µM
Km (Glac L2 [12]): 115 µM
